In the series the test system is Hepatotoxicity.
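Note: severity score taken from the FDA LTKB benchmark dataset, subset of drugs classed as lower DILI concern.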

Regarding `CC(C)(C)NC(=O)[C@@H]1C[C@@H]2CCCC[C@@H]2CN1C[C@@H](O)[C@H](Cc1ccccc1)NC(=O)[C@H](CC(N)=O)NC(=O)c1ccc2ccccc2n1`, the “LTKB_BD DILI severity score” value (Liver) came out at 3.

Take `CCOC(=O)[C@H](CCc1ccccc1)N[C@@H](C)C(=O)N1CCC[C@H]1C(=O)O`: the “LTKB_BD DILI severity score” value was 4.

On to `Nc1nc2c(ncn2COCCO)c(=O)[nH]1` [ACYCLOVIR], for which the “LTKB_BD DILI severity score” value stood at 5.

As to `Oc1ncnc2[nH]ncc12` [ALLOPURINOL], the “LTKB_BD DILI severity score” value was determined as 3.

With `CN(C)c1nc(N(C)C)nc(N(C)C)n1` [ALTRETAMINE], the “LTKB_BD DILI severity score” value is 2.

`NC12CC3CC(CC(C3)C1)C2` [AMANTADINE]: the “LTKB_BD DILI severity score” value came to 3.

For the compound `CC1(C)S[C@@H]2[C@H](NC(=O)[C@H](N)c3ccc(O)cc3)C(=O)N2[C@H]1C(=O)O` [AMOXICILLIN], the “LTKB_BD DILI severity score” value is given as 3.

As for `Cn1cnc([N+](=O)[O-])c1Sc1ncnc2nc[nH]c12` [AZATHIOPRINE], the “LTKB_BD DILI severity score” value (Liver) is reported as 3.

As to `CC(C)NCC(O)COc1ccc(COCCOC(C)C)cc1` (stereo unspecified) [BISOPROLOL], the “LTKB_BD DILI severity score” value is on record as 3.

Consider `CC(NC(C)(C)C)C(=O)c1cccc(Cl)c1` (stereo unspecified) [BUPROPION], for which the “LTKB_BD DILI severity score” value came out at 5.

For `O=C1CC2(CCCC2)CC(=O)N1CCCCN1CCN(c2ncccn2)CC1` [BUSPIRONE], the “LTKB_BD DILI severity score” value is 3.

Take `C[C@H](CS)C(=O)N1CCC[C@H]1C(=O)O` [CAPTOPRIL]: the “LTKB_BD DILI severity score” value worked out at 6.

On to `O=NN(CCCl)C(=O)NCCCl` [CARMUSTINE], for which the “LTKB_BD DILI severity score” value is on record as 3.

Take `CCN(CC)CCCC(C)Nc1ccnc2cc(Cl)ccc12` (stereo unspecified) [CHLOROQUINE]: the “LTKB_BD DILI severity score” value was determined as 3.

Take `CN(C)CCCN1c2ccccc2Sc2ccc(Cl)cc21` [CHLORPROMAZINE]: the “LTKB_BD DILI severity score” value is listed as 2.

`CCCNC(=O)NS(=O)(=O)c1ccc(Cl)cc1` [CHLORPROPAMIDE]: the “LTKB_BD DILI severity score” value is reported as 2.

Regarding `CN/C(=N/CCSCc1nc[nH]c1C)NC#N` [CIMETIDINE], the “LTKB_BD DILI severity score” value (Liver) came to 2.

`CCOC(=O)C(C)(C)Oc1ccc(Cl)cc1` [CLOFIBRATE]: the “LTKB_BD DILI severity score” value is 3.

For `Clc1cccc(Cl)c1N=C1NCCN1` [CLONIDINE], the “LTKB_BD DILI severity score” value (Liver) is given as 3.

Regarding `Clc1ccccc1C(c1ccccc1)(c1ccccc1)n1ccnc1` [CLOTRIMAZOLE], the “LTKB_BD DILI severity score” value is on record as 3.

With `CN1CCN(C2=Nc3cc(Cl)ccc3Nc3ccccc32)CC1` [CLOZAPINE], the “LTKB_BD DILI severity score” value is listed as 2.

Consider `COc1cc2c(c(OC)c1OC)-c1ccc(OC)c(=O)cc1[C@@H](NC(C)=O)CC2` [COLCHICINE], for which the “LTKB_BD DILI severity score” value stood at 6.

Consider `O=C([O-])c1cc(=O)c2c(OCC(O)COc3cccc4oc(C(=O)[O-])cc(=O)c34)cccc2o1.[Na+].[Na+]` [CROMOLYN SODIUM], for which the “LTKB_BD DILI severity score” value was determined as 3.

Turning to `O=P1(N(CCCl)CCCl)NCCCO1` (stereo unspecified) [CYCLOPHOSPHAMIDE ANHYDROUS], the “LTKB_BD DILI severity score” value (Liver) is 5.

Turning to `CNCCCN1c2ccccc2CCc2ccccc21` [DESIPRAMINE], under “Liver”, the “LTKB_BD DILI severity score” value was 3.

Take `C[C@@H]1C[C@H]2[C@@H]3CCC4=CC(=O)C=C[C@]4(C)[C@@]3(F)[C@@H](O)C[C@]2(C)[C@@]1(O)C(=O)CO` [DEXAMETHASONE]: the “LTKB_BD DILI severity score” value was determined as 3.

Regarding `C[C@H]1c2cccc(O)c2C(=O)C2=C(O)[C@]3(O)C(=O)C(C(N)=O)=C(O)[C@@H](N(C)C)[C@@H]3[C@@H](O)[C@@H]21.O` [DOXYCYCLINE], the “LTKB_BD DILI severity score” value is given as 3.

As to `C[C@]12CC[C@@H]3c4ccc(O)cc4CC[C@H]3[C@@H]1CC[C@@H]2O` [ESTRADIOL], the “LTKB_BD DILI severity score” value turned out to be 2.

With `C=C(CC)C(=O)c1ccc(OCC(=O)O)c(Cl)c1Cl` [ETHACRYNIC ACID], the “LTKB_BD DILI severity score” value was found to be 5.

For the compound `NC(N)=Nc1nc(CSCCC(N)=NS(N)(=O)=O)cs1` [FAMOTIDINE], the “LTKB_BD DILI severity score” value (Liver) is 3.

With `CC(C)OC(=O)C(C)(C)Oc1ccc(C(=O)c2ccc(Cl)cc2)cc1` [FENOFIBRATE], the “LTKB_BD DILI severity score” value is given as 3.

With `CNCCC(Oc1ccc(C(F)(F)F)cc1)c1ccccc1` (stereo unspecified) [FLUOXETINE], the “LTKB_BD DILI severity score” value is reported as 3.

As to `CC(C(=O)O)c1ccc(-c2ccccc2)c(F)c1` (stereo unspecified) [FLURBIPROFEN], the “LTKB_BD DILI severity score” value is 3.

Regarding `Nc1nc(O)c2ncn(COC(CO)CO)c2n1` [GANCICLOVIR], the “LTKB_BD DILI severity score” value is 7.

Regarding `Cc1ccc(C)c(OCCCC(C)(C)C(=O)O)c1` [GEMFIBROZIL], the “LTKB_BD DILI severity score” value was found to be 3.

In the case of `CCC1=C(C)CN(C(=O)NCCc2ccc(S(=O)(=O)NC(=O)N[C@H]3CC[C@H](C)CC3)cc2)C1=O` [GLIMEPIRIDE], the “LTKB_BD DILI severity score” value came out at 7.

For `COC1=CC(=O)C[C@@H](C)[C@]12Oc1c(Cl)c(OC)cc(OC)c1C2=O` [GRISEOFULVIN], the “LTKB_BD DILI severity score” value turned out to be 3.

Consider `O=C(CCCN1CCC(O)(c2ccc(Cl)cc2)CC1)c1ccc(F)cc1` [HALOPERIDOL], for which the “LTKB_BD DILI severity score” value was determined as 5.

On to `CC(C)Cc1ccc(C(C)C(=O)O)cc1` (stereo unspecified) [IBUPROFEN], for which the “LTKB_BD DILI severity score” value turned out to be 3.

As for `O=P1(NCCCl)OCCCN1CCCl` (stereo unspecified) [IFOSFAMIDE], the “LTKB_BD DILI severity score” value is 4.

As to `CN(C)CCCN1c2ccccc2CCc2ccccc21` [IMIPRAMINE], the “LTKB_BD DILI severity score” value was 3.

Regarding `COc1ccc2c(c1)c(CC(=O)O)c(C)n2C(=O)c1ccc(Cl)cc1` [INDOMETHACIN], the “LTKB_BD DILI severity score” value is listed as 3.

For `O[C@@H]1CO[C@H]2[C@@H]1OC[C@@H]2O` [ISOSORBIDE], the “LTKB_BD DILI severity score” value turned out to be 3.

Consider `CC1=C(/C=C/C(C)=C/C=C/C(C)=C\C(=O)O)C(C)(C)CCC1` [ISOTRETINOIN], for which the “LTKB_BD DILI severity score” value stood at 2.

Consider `O=C(c1ccccc1)c1ccc2n1CCC2C(=O)O` (stereo unspecified) [KETOROLAC], for which the “LTKB_BD DILI severity score” value is listed as 3.

For `CNCCCC12CCC(c3ccccc31)c1ccccc12` [MAPROTILINE], the “LTKB_BD DILI severity score” value (Liver) came to 5.

For `COC(=O)Nc1nc2ccc(C(=O)c3ccccc3)cc2[nH]1` [MEBENDAZOLE], the “LTKB_BD DILI severity score” value is reported as 3.

For `COCCc1ccc(OCC(O)CNC(C)C)cc1` (stereo unspecified) [METOPROLOL], the “LTKB_BD DILI severity score” value was found to be 5.

`Cc1cccc(C)c1OCC(C)N` (stereo unspecified) [MEXILETINE]: under “Liver”, the “LTKB_BD DILI severity score” value is reported as 3.

For the compound `CN(C)c1ccc(O)c2c1C[C@H]1C[C@H]3[C@H](N(C)C)C(O)=C(C(N)=O)C(=O)[C@@]3(O)C(O)=C1C2=O` [MINOCYCLINE], the “LTKB_BD DILI severity score” value worked out at 2.

Take `CC(C)(O)c1ccccc1CC[C@@H](SCC1(CC(=O)O)CC1)c1cccc(/C=C/c2ccc3ccc(Cl)cc3n2)c1` [MONTELUKAST]: the “LTKB_BD DILI severity score” value is recorded as 3.

As to `COc1ccc2cc([C@H](C)C(=O)O)ccc2c1` [NAPROXEN], the “LTKB_BD DILI severity score” value (Liver) is on record as 3.

For the compound `COC(=O)C1=C(C)NC(C)=C(C(=O)OC)C1c1ccccc1[N+](=O)[O-]` [NIFEDIPINE], the “LTKB_BD DILI severity score” value came out at 3.

As to `CNC(=C[N+](=O)[O-])NCCSCc1csc(CN(C)C)n1` [NIZATIDINE], the “LTKB_BD DILI severity score” value worked out at 5.

As for `CCOC(=O)C1=C[C@@H](OC(CC)CC)[C@H](NC(C)=O)[C@@H](N)C1` [OSELTAMIVIR], the “LTKB_BD DILI severity score” value came out at 3.

For the compound `CN(C)[C@@H]1C(O)=C(C(N)=O)C(=O)[C@@]2(O)C(O)=C3C(=O)c4c(O)cccc4[C@@](C)(O)[C@H]3[C@H](O)[C@@H]12` [OXYTETRACYCLINE], the “LTKB_BD DILI severity score” value is 2.

The values above are taken from ChEMBL document CHEMBL1909281, “FDA-approved drug labeling for the study of drug-induced liver injury” (Drug Discov Today, 2011).
